As a reminder, the IC50 is the point on the concentration scale where inhibition reaches its midpoint. A word on the IC90: it is the concentration at which the effect reaches the 90% level.

The results in this text go back to ChEMBL document CHEMBL4483862, “Open-source discovery of chemical leads for next-generation chemoprotective antimalarials” (2018).

This assay deals with Plasmodium berghei. The assay can be described thus: Luciferase/luciferin-expressing antifolate-resistant parasites were used to infect a culture of HepG2 cells that were pre-incubated with compounds. Infected hepatocytes emit light due to the luciferase reaction. Assay results are presented as the percent inhibition of light emission compared to control. […]. The format is functional. The conditions noted are these: sporozoite; for IC90: read-out: LUCIFERASE INFECTION ASSAY - IC90.

Where [1] appears, read: read-out: LUCIFERASE INFECTION ASSAY - IC50.

As for `CCCCCn1c(Sc2ncc([N+](=O)[O-])s2)n[nH]c1=O`, the IC90 is over 10.5 µM. Also, under “HEPG2TOX_HILL_SLOPE 11.8, HEPG2TOX_R_SQUARED 0.641, PBLUC_HILL_SLOPE 4, PBLUC_R_SQUARED 0.202, read-out: LUCIFERASE INFECTION ASSAY - IC50”, the half-inhibitory concentration (IC50) stood at 7 µM.
`N#Cc1c(N)nc(Sc2ccc(Cl)cc2)c(C#N)c1-c1ccccc1Cl`: the IC90 is over 8.31 µM. In addition, where the note is “HEPG2TOX_HILL_SLOPE 9.05, HEPG2TOX_R_SQUARED 0.0303, PBLUC_HILL_SLOPE 3.41, PBLUC_R_SQUARED 0.0674, read-out: LUCIFERASE INFECTION ASSAY - IC50”, the IC50 stood at 7.69 µM.
On to `C=CCOc1ccccc1CN(c1ccc2c(c1)OCCO2)S(=O)(=O)c1cccs1`, for which the IC90 is over 10 µM. For the same molecule, the IC50 (FFLUC_HILL_SLOPE 11.5, FFLUC_R_SQUARED 0.0724, read-out: LUCIFERASE INFECTION ASSAY - IC50) was over 10 µM.
Take `CC(C)N(C(=O)NC(=O)Nc1nc(-c2ccccc2)cs1)S(C)(=O)=O`: the IC90 was over 10 µM. In addition, the IC50 (HEPG2TOX_HILL_SLOPE 10.9, HEPG2TOX_R_SQUARED 0.151, read-out: LUCIFERASE INFECTION ASSAY - IC50) was over 10 µM.
As to `COc1ccc(S(=O)(=O)NN(C)c2nc(C(F)(F)F)nc3ccccc23)cc1`, the IC90 came to 7.15 µM. For the same molecule, the IC50 (HEPG2TOX_HILL_SLOPE 2.85, HEPG2TOX_R_SQUARED 0.931, PBLUC_HILL_SLOPE 2.16, PBLUC_R_SQUARED 0.738, read-out: LUCIFERASE INFECTION ASSAY - IC50) was 2.59 µM.
With `O=C(CN1CCC(Nc2ncnc3cc(Cl)ccc23)CC1)Nc1ccccc1`, the IC90 came out at 5.83 µM. Also, the IC50 (HEPG2TOX_HILL_SLOPE 1.03, HEPG2TOX_R_SQUARED 0.872, PBLUC_HILL_SLOPE 1.97, PBLUC_R_SQUARED 0.801, read-out: LUCIFERASE INFECTION ASSAY - IC50) was 1.91 µM.
For `CC(=O)Nc1cc(-c2ccc(C(=O)NC3CC3)cc2)cn2c(-c3ccc(F)c(Cl)c3)cnc12`, the IC90 was over 7.13 µM. Further, the IC50 under setting [1] is over 7.13 µM.
In the case of `NC(=S)COc1cc(Cl)cc(Cl)c1`, the IC90 is over 14 µM. The IC50 (HEPG2TOX_HILL_SLOPE 8.05, HEPG2TOX_R_SQUARED 0.893, PBLUC_HILL_SLOPE 16, PBLUC_R_SQUARED 0.105, read-out: LUCIFERASE INFECTION ASSAY - IC50) was found to be 13.4 µM.
On to `O=S(=O)(NC1CCCCCCC1)c1ccc(S(=O)(=O)C(F)F)cc1`, for which the IC90 is over 10 µM. In addition, the IC50 (HEPG2TOX_HILL_SLOPE 11.1, HEPG2TOX_R_SQUARED 0.22, read-out: LUCIFERASE INFECTION ASSAY - IC50) was over 10 µM.
For `O=C(c1ccco1)N1CCc2nc(NCc3cccc(Oc4ccccc4)c3)ncc2C1`, the IC90 turned out to be 2.99 µM. Under “HEPG2TOX_HILL_SLOPE 1.64, HEPG2TOX_R_SQUARED 0.989, PBLUC_HILL_SLOPE 13.2, PBLUC_R_SQUARED 0.473, read-out: LUCIFERASE INFECTION ASSAY - IC50”, the half-inhibitory concentration (IC50) came to 2.53 µM.
Take `COC(=O)CCSc1c2ccc(Cl)cc2nc2ccc(OC)cc12`: the 90% effect concentration (IC90) came out at 0.454 µM. In addition, the concentration for half-maximal inhibition (IC50) (PBLUC_HILL_SLOPE 2.8, PBLUC_R_SQUARED 0.704, read-out: LUCIFERASE INFECTION ASSAY - IC50) was 0.207 µM.
Turning to `Cc1cc(NC(=O)N2CCN(Cc3sc4ccccc4c3Cl)CC2)no1`, the IC90 was 1.17 µM. Besides, where the note is “PBLUC_HILL_SLOPE 1.04, PBLUC_R_SQUARED 0.858, read-out: LUCIFERASE INFECTION ASSAY - IC50”, the IC50 worked out at 0.141 µM.
On to `O=C(Cc1cc(Cl)c2c(c1)OCCCO2)NCc1ccco1`, for which the IC90 is over 10 µM. The IC50 under setting [1] amounted to 6.35 µM.
For `CC(c1cccc(NC(=O)c2ccccc2)c1)N(C)c1ccc([N+](=O)[O-])cn1` (centres undefined), the IC90 was 1.3 µM. In addition, the 50% inhibitory concentration (IC50) (HEPG2TOX_HILL_SLOPE 3.15, HEPG2TOX_R_SQUARED 0.897, PBLUC_HILL_SLOPE 11.5, PBLUC_R_SQUARED 0.814, read-out: LUCIFERASE INFECTION ASSAY - IC50) is 1.08 µM.
On to `O=C(CN1C(=O)CCOc2ccccc21)N1CCN(C(=O)C2COc3ccccc3O2)CC1` (centres undefined), for which the IC90 came to 8.99 µM. Under setting [1], the IC50 was found to be 3.76 µM.
Consider `Cc1cc(C(=O)CNC(=O)Nc2ccccc2)c(C)n1-c1ccc(F)c(Cl)c1`, for which the IC90 amounted to 9.57 µM. Besides, the IC50 (HEPG2TOX_HILL_SLOPE 8.63, HEPG2TOX_R_SQUARED 0.403, PBLUC_HILL_SLOPE 1.87, PBLUC_R_SQUARED 0.488, read-out: LUCIFERASE INFECTION ASSAY - IC50) turned out to be 2.96 µM.
With `Cc1ccccc1-n1c(SCc2nc3ccccc3c(=O)n2CC#N)nnc1-c1ccc(C(C)(C)C)cc1`, the IC90 is over 10 µM. Besides, the IC50 (FFLUC_HILL_SLOPE 0.956, FFLUC_R_SQUARED 0.529, read-out: LUCIFERASE INFECTION ASSAY - IC50) is over 10 µM.
Turning to `O=C(NC(c1ccc(F)cc1)c1cccs1)c1cc2ccccc2o1` (centres undefined), the IC90 was over 10 µM. Further, the IC50 under setting [1] is over 10 µM.
On to `C/C(=N\NC(N)=S)c1ccc(OCc2ncc(C(F)(F)F)cc2Cl)cc1`, for which the IC90 was 4.57 µM. Also, the IC50 (FFLUC_HILL_SLOPE 17.3, FFLUC_R_SQUARED 0.0449, HEPG2TOX_HILL_SLOPE 9.24, HEPG2TOX_R_SQUARED 0.314, PBLUC_HILL_SLOPE 1.92, PBLUC_R_SQUARED 0.719, read-out: LUCIFERASE INFECTION ASSAY - IC50) came out at 1.46 µM.
On to `CCN(Cc1ccccc1)c1ccc(/C=N/N=C(N)N)cc1`, for which the IC90 was 5.13 µM. The IC50 (HEPG2TOX_HILL_SLOPE 8.25, HEPG2TOX_R_SQUARED 0.944, PBLUC_HILL_SLOPE 2.7, PBLUC_R_SQUARED 0.838, read-out: LUCIFERASE INFECTION ASSAY - IC50) is 2.27 µM.
For `CC(=O)Nc1ccc(Sc2cc(C)nc(C(C)C)n2)cc1`, the IC90 is 9.81 µM. For the setting “PBLUC_HILL_SLOPE 2.86, PBLUC_R_SQUARED 0.342, read-out: LUCIFERASE INFECTION ASSAY - IC50”, the half-inhibitory concentration (IC50) worked out at 4.56 µM.
Take `Cc1cc(SCCN)c2cc(F)ccc2n1`: the IC90 is over 14 µM. Besides, the IC50 (HEPG2TOX_HILL_SLOPE 2.08, HEPG2TOX_R_SQUARED 0.947, PBLUC_HILL_SLOPE 2.61, PBLUC_R_SQUARED 0.644, read-out: LUCIFERASE INFECTION ASSAY - IC50) was found to be 6.26 µM.
As to `CC(=O)c1ccc(NC(=O)Nc2ccc3nc(-c4cccc(C(F)(F)F)c4)nn3c2)cc1`, the IC90 worked out at 7.78 µM. Further, the IC50 under setting [1] was 3.53 µM.
On to `Cc1cc(C)n2nc(SC(C)C(=O)N3CCCc4ccccc43)nc2n1` (centres undefined), for which the IC90 was over 2 µM. The IC50 under setting [1] was over 2 µM.
As for `CCOC(=O)c1sc([S+](C)[O-])c2c1CCc1conc1-2` (centres undefined), the IC90 was over 10.6 µM. Besides, under setting [1], the IC50 was over 10.6 µM.
With `Cc1ccc2nc(-c3ccc(NC(=S)NCC(C)(C)CN(C)C)cc3)sc2c1`, the IC90 was over 10 µM. The IC50 (PBLUC_HILL_SLOPE 12.9, PBLUC_R_SQUARED 0.101, read-out: LUCIFERASE INFECTION ASSAY - IC50) amounted to 9.07 µM.
For the molecule `Cc1ccc2nc(NC(=O)C3CCCC3)c(C(=O)NC3CCCC3)n2c1`, the IC90 was over 9.31 µM. For the same molecule, the IC50 under setting [1] was over 9.31 µM.
On to `Cc1ccc(O)c(-c2cc(C(=O)Nc3ccccc3C(F)(F)F)[nH]n2)c1`, for which the IC90 was over 9.13 µM. Moreover, the IC50 under setting [1] is over 9.13 µM.
As for `CC(=O)c1cccc(-c2cnc3cnc(-c4ccc(CNc5ccccc5)cc4)cn23)c1`, the IC90 was over 7.89 µM. The half-maximal inhibitory concentration (IC50) (FFLUC_HILL_SLOPE 9.2, FFLUC_R_SQUARED 0.0159, PBLUC_HILL_SLOPE 3.04, PBLUC_R_SQUARED 0.57, read-out: LUCIFERASE INFECTION ASSAY - IC50) is 4.89 µM.
For the molecule `CC(=O)Nc1nc(C(=O)Nc2nc3ccccc3n2C2CCCCC2)cs1`, the IC90 was over 10 µM. In addition, the concentration for half-maximal inhibition (IC50) under setting [1] was over 10 µM.
Consider `CCN1C(=Cc2cc(C)[n+](CCCN3CCOCC3)c(C)c2)Sc2ccccc21`, for which the IC90 came to 5.67 µM. Moreover, the IC50 (HEPG2TOX_HILL_SLOPE 1.6, HEPG2TOX_R_SQUARED 0.978, PBLUC_HILL_SLOPE 2.92, PBLUC_R_SQUARED 0.557, read-out: LUCIFERASE INFECTION ASSAY - IC50) came to 2.67 µM.
On to `O=C(NC1CCCC1)c1ccc(-c2cn3c(-c4ccc5ncccc5c4)cnc3cn2)cc1`, for which the IC90 is over 7.61 µM. In addition, the IC50 under setting [1] is over 7.61 µM.
On to `Cc1nc(-c2cccc(NC(=O)c3ccc(OC(F)F)cc3)c2)[nH]c1C`, for which the IC90 stood at 2.68 µM. Besides, for the setting “PBLUC_HILL_SLOPE 207, PBLUC_R_SQUARED 0.671, read-out: LUCIFERASE INFECTION ASSAY - IC50”, the IC50 was 2.66 µM.
On to `CCN(CC)c1ccc(NC(=O)c2c(F)cccc2F)c(N(CC)CC)n1`, for which the IC90 is over 8.77 µM. Besides, where the note is “PBLUC_HILL_SLOPE 1.91, PBLUC_R_SQUARED 0.469, read-out: LUCIFERASE INFECTION ASSAY - IC50”, the IC50 was 5.46 µM.
As for `FC(F)(F)c1ccc(N/N=C/c2sc(N3CCOCC3)nc2-c2ccccc2)c(Cl)c1`, the IC90 was over 10 µM. The concentration for half-maximal inhibition (IC50) (FFLUC_HILL_SLOPE 1.6, FFLUC_R_SQUARED 0.81, read-out: LUCIFERASE INFECTION ASSAY - IC50) was over 10 µM.
`COc1ccc(Nc2nccc3[nH]c(-c4cccc(F)c4)cc23)cc1`: the 90% effect concentration (IC90) is 3.55 µM. Moreover, the half-maximal inhibitory concentration (IC50) (HEPG2TOX_HILL_SLOPE 10.4, HEPG2TOX_R_SQUARED 0.0549, PBLUC_HILL_SLOPE 2.88, PBLUC_R_SQUARED 0.623, read-out: LUCIFERASE INFECTION ASSAY - IC50) amounted to 1.66 µM.
On to `S=C(Nc1ccc(Oc2ccccc2)cc1)Nc1cccc2cnccc12`, for which the IC90 is over 10 µM. Also, the IC50 (PBLUC_HILL_SLOPE 1.05, PBLUC_R_SQUARED 0.612, read-out: LUCIFERASE INFECTION ASSAY - IC50) was 4.86 µM.
